Key:
[1] = target: T1, SMARCA4-HiBiT HeLa cells (protein which is expressed from the SMARCA4 gene) (Homo sapiens, UniProt P51532); assay: SMARCA4 degradation assay (HiBiT-fusion HeLa cell line, 24 h, luminescence); assay type: cell-based
T1 construct: protein which is expressed from the SMARCA2 and SMARCA4 genes; host or cells: HeLa (SMARCA4-HiBiT engineered line)
Summary of the method: (§1)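 SMARCA2- or SMARCA4-HiBiT HeLa cells seeded overnight at 37° C, then given compound as a 10-point dilution (typically 10 μM to 300 pM) for 24 h at 37° C. Protein level read by HiBiT lytic detection luminescence; DC50 from dose-response curves; degradation also scored at 1 μM.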

[2] = target: T2, SMARCA2-HiBiT HeLa cells (protein which is expressed from the SMARCA2 gene) (Homo sapiens, UniProt P51531); assay: SMARCA2 degradation assay (HiBiT-fusion HeLa cell line, 24 h, luminescence); assay type: cell-based
T2 construct: protein which is expressed from the SMARCA2 and SMARCA4 genes; host or cells: HeLa (SMARCA2-HiBiT engineered line)
T2 sequence (P51531 whole entry, the tested form may be a part): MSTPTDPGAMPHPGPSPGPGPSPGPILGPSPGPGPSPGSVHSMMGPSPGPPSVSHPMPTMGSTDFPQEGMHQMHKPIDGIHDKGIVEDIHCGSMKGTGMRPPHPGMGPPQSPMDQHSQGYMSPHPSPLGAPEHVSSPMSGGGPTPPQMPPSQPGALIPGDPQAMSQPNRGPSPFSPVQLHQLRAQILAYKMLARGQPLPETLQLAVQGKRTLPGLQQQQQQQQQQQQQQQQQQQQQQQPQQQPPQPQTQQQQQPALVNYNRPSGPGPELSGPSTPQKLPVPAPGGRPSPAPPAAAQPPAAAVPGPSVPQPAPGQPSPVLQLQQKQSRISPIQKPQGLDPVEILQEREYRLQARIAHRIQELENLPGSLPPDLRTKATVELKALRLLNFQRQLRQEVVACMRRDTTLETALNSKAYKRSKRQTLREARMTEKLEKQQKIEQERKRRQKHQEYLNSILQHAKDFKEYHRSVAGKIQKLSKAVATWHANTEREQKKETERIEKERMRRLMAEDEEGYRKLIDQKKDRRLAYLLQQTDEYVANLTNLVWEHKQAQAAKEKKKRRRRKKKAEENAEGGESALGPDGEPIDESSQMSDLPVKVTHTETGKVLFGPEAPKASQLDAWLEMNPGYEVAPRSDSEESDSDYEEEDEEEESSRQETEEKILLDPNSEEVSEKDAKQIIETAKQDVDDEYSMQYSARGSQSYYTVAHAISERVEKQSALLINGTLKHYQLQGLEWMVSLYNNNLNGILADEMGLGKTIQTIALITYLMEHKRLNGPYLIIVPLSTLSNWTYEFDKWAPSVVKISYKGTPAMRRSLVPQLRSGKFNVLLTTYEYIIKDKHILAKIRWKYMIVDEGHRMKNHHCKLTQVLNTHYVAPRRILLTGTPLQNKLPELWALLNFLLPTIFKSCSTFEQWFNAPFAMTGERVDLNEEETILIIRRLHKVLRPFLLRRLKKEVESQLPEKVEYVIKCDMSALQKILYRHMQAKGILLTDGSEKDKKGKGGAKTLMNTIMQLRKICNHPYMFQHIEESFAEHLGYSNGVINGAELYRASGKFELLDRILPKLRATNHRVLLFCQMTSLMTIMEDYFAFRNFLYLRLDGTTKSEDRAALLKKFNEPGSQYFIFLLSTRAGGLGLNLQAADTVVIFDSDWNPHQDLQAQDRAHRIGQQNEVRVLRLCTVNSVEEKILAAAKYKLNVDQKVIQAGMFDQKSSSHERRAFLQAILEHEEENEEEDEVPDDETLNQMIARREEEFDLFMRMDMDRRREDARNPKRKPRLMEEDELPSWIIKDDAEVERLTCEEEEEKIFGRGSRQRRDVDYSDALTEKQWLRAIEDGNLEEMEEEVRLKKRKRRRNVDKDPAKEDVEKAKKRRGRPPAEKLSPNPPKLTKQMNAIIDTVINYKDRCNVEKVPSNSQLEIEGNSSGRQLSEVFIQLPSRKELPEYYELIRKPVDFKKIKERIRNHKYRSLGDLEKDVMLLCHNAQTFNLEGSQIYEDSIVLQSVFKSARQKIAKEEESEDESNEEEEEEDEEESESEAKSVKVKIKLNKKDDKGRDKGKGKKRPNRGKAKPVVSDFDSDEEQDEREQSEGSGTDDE
Summary of the method: as §1

T1 sequence (P51532 whole entry, the tested form may be a part): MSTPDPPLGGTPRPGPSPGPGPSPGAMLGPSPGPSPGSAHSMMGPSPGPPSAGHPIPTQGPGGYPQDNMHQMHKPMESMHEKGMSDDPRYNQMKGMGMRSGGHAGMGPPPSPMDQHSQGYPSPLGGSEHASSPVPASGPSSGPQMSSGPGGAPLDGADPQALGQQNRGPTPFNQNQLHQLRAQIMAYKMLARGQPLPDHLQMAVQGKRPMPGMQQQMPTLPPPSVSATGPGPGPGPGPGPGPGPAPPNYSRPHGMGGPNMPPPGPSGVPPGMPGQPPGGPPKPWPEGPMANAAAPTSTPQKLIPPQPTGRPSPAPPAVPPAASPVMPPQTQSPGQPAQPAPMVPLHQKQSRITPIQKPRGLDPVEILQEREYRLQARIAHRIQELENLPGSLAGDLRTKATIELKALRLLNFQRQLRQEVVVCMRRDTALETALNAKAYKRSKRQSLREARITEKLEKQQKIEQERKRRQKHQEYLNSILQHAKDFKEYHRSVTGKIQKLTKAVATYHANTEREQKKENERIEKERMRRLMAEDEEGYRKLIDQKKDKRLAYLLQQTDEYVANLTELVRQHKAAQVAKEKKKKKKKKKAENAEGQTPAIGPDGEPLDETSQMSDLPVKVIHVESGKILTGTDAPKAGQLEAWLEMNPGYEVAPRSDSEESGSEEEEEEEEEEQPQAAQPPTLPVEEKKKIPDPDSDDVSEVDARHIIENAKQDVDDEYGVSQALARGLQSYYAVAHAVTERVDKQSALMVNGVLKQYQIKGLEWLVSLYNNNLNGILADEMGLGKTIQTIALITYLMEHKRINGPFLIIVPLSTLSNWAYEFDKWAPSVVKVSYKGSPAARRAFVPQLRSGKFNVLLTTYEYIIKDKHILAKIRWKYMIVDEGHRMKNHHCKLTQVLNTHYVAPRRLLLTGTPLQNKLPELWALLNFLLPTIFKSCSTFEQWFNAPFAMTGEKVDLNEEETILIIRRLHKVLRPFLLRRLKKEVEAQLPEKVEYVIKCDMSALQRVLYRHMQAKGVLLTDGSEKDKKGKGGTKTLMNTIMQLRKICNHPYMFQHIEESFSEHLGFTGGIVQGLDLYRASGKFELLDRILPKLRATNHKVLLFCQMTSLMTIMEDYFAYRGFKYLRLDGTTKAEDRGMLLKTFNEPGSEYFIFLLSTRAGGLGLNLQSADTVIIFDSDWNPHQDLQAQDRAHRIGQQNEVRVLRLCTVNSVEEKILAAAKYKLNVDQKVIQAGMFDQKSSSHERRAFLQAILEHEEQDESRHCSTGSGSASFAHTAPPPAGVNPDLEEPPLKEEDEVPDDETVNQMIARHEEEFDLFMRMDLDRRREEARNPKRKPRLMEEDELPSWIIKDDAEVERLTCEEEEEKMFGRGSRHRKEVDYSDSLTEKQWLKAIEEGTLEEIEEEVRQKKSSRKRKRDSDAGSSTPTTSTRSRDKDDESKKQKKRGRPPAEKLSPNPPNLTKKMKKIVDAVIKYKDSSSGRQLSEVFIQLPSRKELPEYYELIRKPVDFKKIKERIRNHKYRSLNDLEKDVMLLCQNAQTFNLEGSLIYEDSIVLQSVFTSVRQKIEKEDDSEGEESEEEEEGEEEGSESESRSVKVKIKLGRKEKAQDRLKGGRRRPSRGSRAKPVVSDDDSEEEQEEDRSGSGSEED

| Structure (SMILES) | DC50 [1] [nM] | inhibition at 1 µM [1] [%] | DC50 [2] [nM] | SMARCA2 % Degradation @ 1 μM ([2]; @ 1 μM) | SMARCA2 % Degradation @ 1 μM ([2]; 1 μM) |
| --- | --- | --- | --- | --- | --- |
| CC(C#Cc1nccc(N2CCN(c3cc(-c4ccccc4O)nnc3N)CC2)n1)NC(=O)c1cc2ncccn2n1 (stereo not drawn) [Compound P-95, N-(4-(4-(4-(3-amino-6-(2-hydroxyphenyl)pyridazin-4-yl)piperazin-1-yl)pyrimidin-2-yl)but-3-yn-2-yl)pyrazolo[1,5-a]pyrimidine-2-carboxamide] | < 50 | 30 to 70 | 50 to 500 | + (+=<30%) | – |
| Cn1ccc(NCC#Cc2nccc(N3C4CCC3CN(c3cc(-c5ccccc5O)nnc3N)C4)n2)n1 [Compound P-287] | 50 to 500 | 30 to 70 | 50 to 500 | ++ (++=30-70%) | – |
| Nc1nnc(-c2ccccc2O)cc1N1CC2CC1CN(c1ccnc(C#CCNC(=O)c3cc4ncccn4n3)n1)C2 (stereo not drawn) [Compound P-17, N-(3-(4-(6-(3-amino-6-(2-hydroxyphenyl)pyridazin-4-yl)-3,6-diazabicyclo[3.2.1]octan-3-yl)pyrimidin-2-yl)prop-2-yn-1-yl)pyrazolo[1,5-a]pyrimidine-2-carboxamide] | 500 to 5000 | 30 to 70 | 500 to 5000 | ++ (++=30-70%) | – |
| Cn1ccc(OCC#Cc2nccc(N3CCCN(c4cc(-c5ccccc5O)nnc4N)CC3)n2)n1 [Compound P-108, 2-(6-amino-5-(4-(2-(3-((1-methyl-1H-pyrazol-3-yl)oxy)prop-1-yn-1-yl)pyrimidin-4-yl)-1,4-diazepan-1-yl)pyridazin-3-yl)phenol] | 50 to 500 | > 70 | 50 to 500 | +++ (+++=>70%) | – |
| Nc1nnc(-c2ccccc2O)cc1N1CCCC2(CCN(c3ccnc(C#CCNC(=O)c4cc5ncccn5n4)n3)CC2)C1 [Compound P-33, N-(3-(4-(2-(3-amino-6-(2-hydroxyphenyl)pyridazin-4-yl)-2,9-diazaspiro[5.5]undecan-9-yl)pyrimidin-2-yl)prop-2-yn-1-yl)pyrazolo[1,5-a]pyrimidine-2-carboxamide] | 50 to 500 | 30 to 70 | 50 to 500 | ++ (++=30-70%) | – |
| CC(=O)NCC#Cc1nccc(N2CCN(c3cc(-c4ccccc4O)nnc3N)CC2)n1 [Compound P-68, N-(3-(4-(4-(3-amino-6-(2-hydroxyphenyl)pyridazin-4-yl)piperazin-1-yl)pyrimidin-2-yl)prop-2-yn-1-yl)acetamide] | > 5000 | – | 50 to 500 | + (+=<30%) | – |
| Nc1nnc(-c2ccccc2O)cc1N1CCN(c2ccnc(C#CCCNC(=O)c3cc4ncccn4n3)n2)CC1 [Compound P-94, N-(4-(4-(4-(3-amino-6-(2-hydroxyphenyl)pyridazin-4-yl)piperazin-1-yl)pyrimidin-2-yl)but-3-yn-1-yl)pyrazolo[1,5-a]pyrimidine-2-carboxamide] | 50 to 500 | < 30 | 50 to 500 | ++ (++=30-70%) | – |
| Nc1nnc(-c2ccccc2O)cc1N1CC2CCC(C1)N2c1nc(C#CCn2ccnc2)ncc1F [Compound P-224, o-[6-amino-5-(8-{5-fluoro-2-[3-(1-imidazolyl)-1-propynyl]-4-pyrimidinyl}-3,8-diazabicyclo[3.2.1]oct-3-yl)-3-pyridazinyl]phenol] | 50 to 500 | > 70 | 50 to 500 | +++ (+++=>70%) | – |
| CC1CN(c2cc(-c3ccccc3O)nnc2N)CCCN1c1ccnc(C#CCNC(=O)c2cc3ncccn3n2)n1 (stereo not drawn) [Compound P-20, N-(3-(4-(4-(3-amino-6-(2-hydroxyphenyl)pyridazin-4-yl)-2-methyl-1,4-diazepan-1-yl)pyrimidin-2-yl)prop-2-yn-1-yl)pyrazolo[1,5-a]pyrimidine-2-carboxamide] | 50 to 500 | 30 to 70 | 50 to 500 | ++ (++=30-70%) | – |
| Nc1nnc(-c2ccccc2O)cc1N1CCN(c2ccnc(C#CCNC(=O)c3cnc4ccccn34)n2)CC1 [Compound P-66, N-(3-(4-(4-(3-amino-6-(2-hydroxyphenyl)pyridazin-4-yl)piperazin-1-yl)pyrimidin-2-yl)prop-2-yn-1-yl)imidazo[1,2-a]pyridine-3-carboxamide] | 50 to 500 | 30 to 70 | 50 to 500 | ++ (++=30-70%) | – |

Next, values leading:

| DC50 [1] [nM] | inhibition at 1 µM [1] [%] | DC50 [2] [nM] | SMARCA2 % Degradation @ 1 μM ([2]; @ 1 μM) | SMARCA2 % Degradation @ 1 μM ([2]; 1 μM) | Structure (SMILES) |
| --- | --- | --- | --- | --- | --- |
| 500 to 5000 | 30 to 70 | 50 to 500 | ++ (++=30-70%) | – | COC/C=C/c1nccc(N2CCN(c3cc(-c4ccccc4O)nnc3N)CC[C@H]2C)n1 [Compound P-170, o-(5-{(R)-4-[2-(3-methoxy-1-propenyl)-4-pyrimidinyl]-5-methyl-1,4-diazepan-1-yl}-6-amino-3-pyridazinyl)phenol] |
| > 5000 | – | 500 to 5000 | – | – | C[C@@H]1CCN(c2cc(-c3ccccc3O)nnc2N)CCN1c1ccnc(C#CCn2cncn2)c1C#N [Compound P-405, 4-{(R)-4-[3-amino-6-(0-hydroxyphenyl)-4-pyridaziny1]-7-methyl-1,4-diazepan-1-yl}-2-[3-(1H-1,2,4-triazol-1-yl)-1-propynyl]nicotinonitrile] |
| 500 to 5000 | < 30 | 500 to 5000 | ++ (++=30-70%) | – | C[C@@H]1CCN(c2cc(-c3ccccc3O)nnc2N)CCN1c1nc(C#CCNC(=O)OC(C)(C)C)ncc1F [Compound P-248] |
| 50 to 500 | 30 to 70 | 50 to 500 | ++ (++=30-70%) | – | Nc1nnc(-c2ccccc2O)cc1N1CCCN(c2ccnc(C#CCO)n2)CC1 [Compound P-125, 2-(6-amino-5-(4-(2-(3-hydroxyprop-1-yn-1-yl)pyrimidin-4-yl)-1,4-diazepan-1-yl)pyridazin-3-yl)phenol] |
| 50 to 500 | 30 to 70 | 50 to 500 | +++ (+++=>70%) | – | Nc1nnc(-c2ccccc2O)cc1N1CCCN(c2ccnc(C#CCNC3CCOCC3)n2)CC1 [Compound P-300, 0-[6-amino-5-(4-{2-[3-(tetrahydro-2H-pyran-4-ylamino)-1-propynyl]-4-pyrimidinyl}-1,4-diazepan-1-yl)-3-pyridazinyl]phenol] |
| 50 to 500 | > 70 | 50 to 500 | +++ (+++=>70%) | – | CN(C)CC#Cc1nccc(N2CC3CC(Oc4cc(-c5ccccc5O)nnc4N)CC3C2)n1 (stereo not drawn) [Compound P-222, o-[6-amino-5-(3-{2-[3-(dimethylamino)-1-propynyl]-4-pyrimidinyl}-3-azabicyclo[3.3.0]oct-7-yloxy)-3-pyridazinyl]phenol] |
| 500 to 5000 | < 30 | 500 to 5000 | ++ (++=30-70%) | – | Nc1nnc(-c2cc(F)ccc2O)cc1N1CCCN(c2ccnc(C#CCNC(=O)c3cc4ncccn4n3)n2)CC1 [Compound P-367, N-[3-(4-{4-[3-amino-6-(5-fluoro-2-hydroxyphenyl)-4-pyridazinyl]-1,4-diazepan-1-y1}-2-pyrimidinyl)-2-propynyl]-1,4,7a-triaza-2-indenecarboxamide] |
| < 50 | – | 50 to 500 | – | + (+=<30%) | C[C@@H]1CCN(c2cc(-c3ccccc3O)nnc2N)CCN1c1ccnc(C#CCN2[C@H](C)COC[C@@H]2C)c1 [Compound P-422, 0-{5-[(R)-4-(2-{3-[(3R,5S)-3,5-dimethyl-4-morpholiny1]-1-propynyl}-4-pyridyl)-5-methyl-1,4-diazepan-1-yl]-6-amino-3-pyridazinyl}phenol] |
| 50 to 500 | 30 to 70 | 50 to 500 | +++ (+++=>70%) | – | C[C@@H]1CCN1CC#Cc1nccc(N2CCCN(c3cc(-c4ccccc4O)nnc3N)CC2)n1 [Compound P-299, 0-{5-[4-(2-{3-[(R)-2-methyl-1-azetidinyl]-1-propynyl}-4-pyrimidinyl)-1,4-diazepan-1-y1]-6-amino-3-pyridaziny1} phenol] |
| 500 to 5000 | 30 to 70 | 50 to 500 | ++ (++=30-70%) | – | Nc1nnc(-c2ccccc2O)cc1N1CCCN(c2ccnc(C#CCN3C[C@@H]4C[C@H]3CO4)n2)CC1 [Compound P-377, 0-(5-{4-[2-(3-{(1S,4S)-2-oxa-5-azabicyclo[2.2.1]hept-5-yl}-1-propynyl)-4-pyrimidinyl]-1,4-diazepan-1-y1}-6-amino-3-pyridazinyl)phenol] |
| > 5000 | – | < 50 | ++ (++=30-70%) | – | CN(C)CC#Cc1nccc(N2CCC3(CC2)CCN(c2cc(-c4ccccc4O)nnc2N)C3)n1 [Compound P-344, 0-[6-amino-5-(8-{2-[3-(dimethylamino)-1-propynyl]-4-pyrimidinyl}-2,8-diaza-2-spiro[4.5]decyl)-3-pyridazinyl]phenol] |
| 500 to 5000 | 30 to 70 | 50 to 500 | ++ (++=30-70%) | – | N#CC1CCN(CC#Cc2nccc(N3CCCN(c4cc(-c5ccccc5O)nnc4N)CC3)n2)CC1 [Compound P-357, 1-[3-(4-{4-[3-amino-6-(o-hydroxyphenyl)-4-pyridazinyl]-1,4-diazepan-1-yl}-2-pyrimidinyl)-2-propynyl]-4-piperidinecarbonitrile] |
| 50 to 500 | 30 to 70 | 50 to 500 | +++ (+++=>70%) | – | Nc1nnc(-c2ccccc2O)cc1N1CCCN(c2ccnc(C#CCN[C@@H]3CCOC3)n2)CC1 [Compound P-273, 0-{5-[4-(2-{3-[(R)-tetrahydro-3-furylamino]-1-propynyl}-4-pyrimidinyl)-1,4-diazepan-1-yl]-6-amino-3-pyridazinyl}phenol] |
